Measured values taken from patent US20250230193A1, “CYCLIC COMPOUND HAVING SELECTIVE KRAS INHIBITORY EFFECT ON HRAS AND NRAS” (CHUGAI SEIYAKU KABUSHIKI KAISHA, priority 2022, published 2025).
Where a SMILES comes first, the peptide text is derived from it. Bridges are numbered along the chain shown (N, C = ends). [ ]: non-standard residue; d: D form. The star is where a group is joined. hPhe(3-Cl-4-CF3) = N[C@@H](CCc1ccc(C(F)(F)F)c(Cl)c1)C(=O)O; NPrPhe(4-Me) = CCCN[C@@H](Cc1ccc(C)cc1)C(=O)O; NMeGly(cPent) = CN[C@H](C(=O)O)C1CCCC1; NMeD = CN[C@@H](CC(=O)O)C(=O)O; NMeL = CN[C@@H](CC(C)C)C(=O)O; Morpholide = C1CN(*)CCO1; Ac5c = NC1(C(=O)O)CCCC1; NEtG = CCNCC(=O)O; Sar = CNCC(=O)O

What was measured:
[1] = biological target: GDP-bound HRAS wild-type protein (Homo sapiens, UniProt P01112); test: Binding to HRAS by surface plasmon resonance (SPR), Single Cycle Kinetics; details: SPR; for HRAS/KRAS (ratio of KD value for HRAS to KD value for KRAS): GDP-bound HRAS wild-type vs GDP-bound KRAS wild-type
GDP-bound HRAS wild-type protein, sequence (P01112 whole entry): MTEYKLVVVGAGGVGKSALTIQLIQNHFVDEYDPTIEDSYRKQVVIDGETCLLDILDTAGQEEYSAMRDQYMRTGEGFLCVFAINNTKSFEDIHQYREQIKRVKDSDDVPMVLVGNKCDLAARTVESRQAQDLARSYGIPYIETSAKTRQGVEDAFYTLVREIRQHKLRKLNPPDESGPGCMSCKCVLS

[2] = biological target: GDP-bound NRAS wild-type protein (Homo sapiens, UniProt P01111); test: Binding to NRAS by surface plasmon resonance (SPR), Single Cycle Kinetics; details: SPR; for NRAS/KRAS (ratio of KD value for NRAS to KD value for KRAS): GDP-bound NRAS wild-type vs GDP-bound KRAS wild-type
GDP-bound NRAS wild-type protein, sequence (P01111 whole entry): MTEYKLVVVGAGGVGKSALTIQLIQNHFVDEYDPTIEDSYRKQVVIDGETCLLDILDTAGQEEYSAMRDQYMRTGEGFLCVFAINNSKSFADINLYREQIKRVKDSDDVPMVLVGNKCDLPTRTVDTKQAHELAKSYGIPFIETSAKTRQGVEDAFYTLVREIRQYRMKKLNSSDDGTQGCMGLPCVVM

CCCN1C(=O)CN(C)C(=O)CN(C)C(=O)[C@H]([C@@H](C)CC)NC(=O)[C@H](CC(C)C)N(C)C(=O)C[C@@H](C(=O)N2CCOCC2)N(C)C(=O)[C@H](C2CCCC2)N(C)C(=O)C2(CCCC2)NC(=O)[C@@H]2CCCN2C(=O)[C@H](CCc2ccc(C(F)(F)F)c(Cl)c2)NC(=O)CN(CC)C(=O)[C@@H]1Cc1ccc(C)cc1 [PP0066] ([NMeL]I[Sar][Sar][NPrPhe(4-Me)][NEtG][hPhe(3-Cl-4-CF3)]P[Ac5c][NMeGly(cPent)][NMeD]-Morpholide; lactam N-11)
HRAS/KRAS (ratio of KD for GDP-bound HRAS wild-type to KD for KRAS) ([1]; KD ratio HRAS/KRAS): C (A compound having a KD ratio of 0.1 or more and less than 3 is denoted as C)
NRAS/KRAS (ratio of KD for GDP-bound NRAS wild-type to KD for KRAS) ([2]; KD ratio NRAS/KRAS): B (a compound having 3 or more and less than 10 is denoted as B)

CCO[C@@H]1C[C@H]2C(=O)NC3(CC(C)(C)C3)C(=O)N(C)[C@@H](C(CC)CC)C(=O)N(C)[C@H](C(=O)N(C)C)CC(=O)N(C)[C@H]3CCCCCc4ccc(cc4)C[C@@H](C(=O)N(C)CC(=O)N[C@@H](CCc4ccc(C(F)(F)F)c(OC)c4)C(=O)N2C1)N1CC/C=C\C[C@@H](C1=O)N(C)C(=O)CN(C)C(=O)[C@H]([C@@H](C)CC)NC3=O [PP3035]
HRAS/KRAS (ratio of KD value with respect to GDP-bound HRAS wild-type protein to KD value with respect to KRAS) ([1]; KD ratio HRAS/KRAS, GDP-bound wild-type proteins): A (a compound having 10 or more and less than 20 is denoted as A)
NRAS/KRAS (ratio of KD value with respect to GDP-bound NRAS wild-type protein to KD value with respect to KRAS) ([2]; KD ratio NRAS/KRAS, GDP-bound wild-type proteins): AA (a compound having 20 or more is denoted as AA)

CCO[C@@H]1C[C@H]2C(=O)NC3(CCC3)C(=O)N(C)[C@@H](C3CCCC3)C(=O)N(C)[C@H](C(=O)N3CCOCC3)CC(=O)N(C)[C@@H](CC)C(=O)N[C@@H]([C@@H](C)CC)C(=O)N(C)CC(=O)N(C)[C@H]3CC/C=C(/C)CN(C3=O)[C@@H](Cc3ccc(C(F)(F)F)cc3)C(=O)N(C)CC(=O)N[C@@H](CCc3cc(F)c(C(F)(F)F)c(F)c3)C(=O)N2C1 [PP1335]
HRAS/KRAS (ratio of KD value for GDP-bound HRAS wild-type protein to KD value for KRAS) ([1]; KD ratio class): B (a compound having 3 or more and less than 10 is denoted as B)
NRAS/KRAS (ratio of KD value for GDP-bound NRAS wild-type protein to KD value for KRAS) ([2]; KD ratio class): B (a compound having 3 or more and less than 10 is denoted as B)

CCCN(C)C(=O)[C@@H]1CC(=O)N(C)[C@@H](COC)C(=O)N[C@@H]([C@@H](C)CC)C(=O)N(C)CC(=O)N(C)[C@H]2C/C=C\CCN(C2=O)[C@@H](Cc2ccc(C(F)(F)F)cc2)C(=O)N(C)CC(=O)N[C@@H](CCc2cc(F)c(C(F)(F)F)c(F)c2)C(=O)N2CCC[C@H]2C(=O)NC2(CC(C)(C)C2)C(=O)N(C)[C@@H](C2CCCC2)C(=O)N1C [PP1729]
HRAS/KRAS (ratio of KD value for HRAS to KD value for KRAS) [1]: A (a compound having 10 or more and less than 20 is denoted as A)
NRAS/KRAS (ratio of KD value for NRAS to KD value for KRAS) [2]: AA (a compound having 20 or more is denoted as AA)

CC[C@H](C)[C@@H]1NC(=O)[C@H](CC(C)C)N(C)C(=O)C[C@@H](C(=O)N(C)C)N(C)C(=O)[C@H](C2CCCC2)N(C)C(=O)C2(CCCC2)NC(=O)[C@@H]2CCCN2C(=O)[C@H](CCc2ccc(C(F)(F)F)c(Cl)c2)NC(=O)CN(C)C(=O)[C@H](Cc2ccc(C(F)(F)F)cc2)N2CC=CCOC[C@H](C2=O)N(C)C(=O)CN(C)C1=O [PP0628]
HRAS/KRAS (ratio of KD value with respect to GDP-bound HRAS wild-type protein to KD value with respect to KRAS) ([1]; KD ratio HRAS/KRAS): C (A compound having a KD ratio of 0.1 or more and less than 3 is denoted as C)
NRAS/KRAS (ratio of KD value with respect to GDP-bound NRAS wild-type protein to KD value with respect to KRAS) ([2]; KD ratio NRAS/KRAS): C (A compound having a KD ratio of 0.1 or more and less than 3 is denoted as C)

CCCN1C(=O)C[C@@H](C(=O)N(C)C)N(C)C(=O)[C@H](C2CCCC2)N(C)C(=O)C2(CCC2)NC(=O)[C@@H]2C[C@@H](OCC)CN2C(=O)[C@H](CCc2cc(F)c(C(F)(F)F)c(F)c2)NC(=O)CN(C)C(=O)[C@H](Cc2ccc(C(F)(F)F)cc2)N2CC/C=C\C[C@@H](C2=O)N(C)C(=O)CN(C)C(=O)[C@H]([C@@H](C)CC)NC(=O)[C@@H]1CC(C)C [PP1825]
HRAS/KRAS (ratio of KD value for HRAS to KD value for KRAS) [1]: A (a compound having 10 or more and less than 20 is denoted as A)
NRAS/KRAS (ratio of KD value for NRAS to KD value for KRAS) [2]: A (a compound having 10 or more and less than 20 is denoted as A)
